According to patent publication US20230173071A1, “TREATMENT OF MYOPIA AND OTHER OCULAR CONDITIONS USING SINGLET OXYGEN GENERATED FROM DYES ACTIVATED BY NEAR-INFRARED LIGHT” (California Institute of Technology, priority 2018, published 2023):

Key:
bovine gelatin = test: Young's Modulus measurement (Instron) of irradiated bovine gelatin strips; settings: bovine gelatin 25% wt, ICG 1 mg/mL, TEOA 90 mM; 810 nm 200 mW LED; 3 and 5 minute irradiations compiled
Description: (§1) All Young's Modulus values were determined using an Instron equipped with screw side action tensile grips and a load cell rated for max 100 N. Rates of pulling were between 3 mm/minute and 5 mm/minute. The software calculated the Young's Modulus from the force vs. distance/time.
Bovine gelatin sheets were made by heating the gelatin in Dulbecco's buffer to 75° C. for 30 minutes in order to dissolve the dried gelatin and make a viscous solution. Neat TEOA and a concentrated stock solution of ICG in deionized water were added to make the final concentrations: bovine gelatin=25% wt, TEOA=90 mM, and ICG=1 mg/mL. This solution was pipetted hot into a plexiglass mold with a Teflon spacer to form a sheet of the following dimensions: 14 cm×6 cm×1 mm. It was stored overnight in a 4° C. refrigerator to solidify. Twelve 1 cm×6 cm strips were cut from the solidified gel for triplicate analysis of 4 conditions: no irradiation, 3 minute, 5 minute, and 10 minute irradiations. An 810 nm 200 mW LED (Thor Labs) was used for treatment of the gel strip. The LED with a collimator produced a 1 cm×1 cm irradiation area, which was used to treat 1 cm portions of the gelatin strip at a time. For example, an initial irradiation was applied for 3 minutes on 1 cm of the gel, then the gel was shifted 1 cm to a new, untreated portion. […]

porcine sclera = test: Young's Modulus measurement (Instron) of irradiated porcine sclera strips; set-up: species or system porcine (pig); settings: porcine sclera strips soaked in 2 mg/mL ICG, 0.01% BAC in D2O; 810 nm LED 200 mW, total 10 minutes
Description: as §1
The treatment was also tested on a more biologically relevant sample—unscalded porcine (pig) eyes (Sierra For Medical Science). Eyes were cut around the globe to make a 1 cm×5-6 cm strip of pig sclera for testing. Measurements were accumulated over several batches of eyes. Storage solutions before treatment (irradiation) contained 20% Dextran (MW ˜40-45k) in D2O while post-treatment storage was Dulbecco's buffer with 20% Dextran (MW ˜40-45k). An ICG/BAC/D2O soak solution was made to the concentration of 2 mg/mL ICG and 0.01% BAC. Strips for treatment were soaked in the solution for 0.5-2 hours. Irradiation was carried out similarly to the bovine gelatin strips—810 nm LED, 200 mW, and a 1 cm×1 cm irradiation zone. To ensure sufficient irradiation without sample dehydration, irradiation duration was kept at 5 minutes but performed twice—i.e. the sample was moved down 1 cm every 5 minutes and then the process was repeated—in order to give a total of 10 minutes of irradiation. […] The Young's Modulus values were calculated by the software and compiled to compare untreated vs. treated strips. […]

[1] = Singlet oxygen sensor green (SOSG) fluorescence measurements; assay type: physicochemical; settings: for SOSG fluorescence emission at 525 nm: dye 0.1 mg/mL, 810 nm, 200 mW, 488 nm excitation
Description: Singlet oxygen sensor green (SOSG) is a common reagent for measuring singlet oxygen generation in aqueous systems. The marker becomes more fluorescent as singlet oxygen is generated. All time measurements were done in triplicate (100 μL aliquots from an irradiated sample). A Molecular Devices Flexstation was used to read out the fluorescence measurements with the excitation/emission at 488/525 nm.
SOSG fluorescence turn on was initially measured using riboflavin as a point of comparison for the efficacy of ICG irradiations. Measurements used a dye concentration of 0.1 mg/mL and the irradiation the parameters (3 mW at 365 nm) used in the FDA approved procedure for keratoconus (corneal expansion). The mixture was stirred during irradiation.
Stocks of the ICG formulations (both H2O and D2O) were made to be 1 mg/mL ICG and 0.01% benzalkonium chloride (BAC). These were diluted to a dye concentration of 0.1 mg/mL for the SOSG tests with no adjustments for the BAC. The sample was irradiated with 810 nm light at 200 mW and stirred throughout the irradiation.

CC1(C)C(/C=C/C=C/C=C/C=C2\N(CCCCS(=O)(=O)O)c3ccc4ccccc4c3C2(C)C)=[N+](CCCCS(=O)(=O)[O-])c2ccc3ccccc3c21 [ICG, indocyanine green]
increase of the Young's Modulus, irradiated vs non-irradiated sample (bovine gelatin): 26%
increase of the Young's Modulus, irradiated (treated) vs non-irradiated (untreated) sample (porcine sclera): 21%
SOSG fluorescence emission at 525 nm ([1]; D2O): large increase in fluorescence activation
SOSG fluorescence emission at 525 nm ([1]; H2O): increase
singlet oxygen generation (SOSG turn-on) relative to riboflavin ([1]; only in the presence of D2O): efficient enough to compete with the turn-on observed in the presence of riboflavin
